Source: ChEMBL document CHEMBL4834475, “Synthesis of anti-proliferative [3.3.0]furofuranone derivatives by lactonization and functionalization of C-glycosyl compounds” (Bioorg Med Chem, 2021)
Active and inactive are the calls of the source. The rule behind the calls is not given here.

Tests used:
[1] = test system: Daoy; test: Antiproliferative activity against human Daoy cells assessed as reduction in cell viability measured after 72 hrs by MTT assay; format: functional, cell-based
[2] = test system: U-87 MG; test: Antiproliferative activity against human U87 cells assessed as reduction in cell viability measured after 72 hrs by MTT assay; format: functional, cell-based, U-87MG ATCC
[3] = test system: U-251; test: Induction of cell cycle arrest in human U-251 cells assessed as increase in accumulation of cells at G1 phase at 0.1 uM measured after 72 hrs by propidium iodide staining based flow cytometry; format: functional
[4] = test system: MDA-MB-231; test: Antiproliferative activity against human MDA-MB-231 cells assessed as reduction in cell viability measured after 72 hrs by MTT assay; format: functional, cell-based; conditions: MDA-MB-231, 72 h
[5] = test system: U-251; test: Induction of apoptosis in human U-251 cells assessed as increase in accumulation of cells at sub-G1 phase at 0.1 uM measured after 72 hrs by propidium iodide staining based flow cytometry; format: functional, cell-based
[6] = test system: U-251; test: Antiproliferative activity against human U-251 cells assessed as reduction in cell viability measured after 72 hrs by MTT assay; format: functional, cell-based; conditions: U-251, 72 h
[7] = test system: U-251; test: Induction of cell cycle arrest in human U-251 cells assessed as accumulation at G2/M phase at 1 uM measured after 72 hrs by propidium iodide staining based flow cytometry; format: functional
[8] = test system: U-251; test: Induction of cell cycle arrest in human U-251 cells assessed as accumulation at G1 phase at 1 uM measured after 72 hrs by propidium iodide staining based flow cytometry; format: functional
[9] = test system: U-251; test: Induction of cell cycle arrest in human U-251 cells assessed as accumulation at S phase at 1 uM measured after 72 hrs by propidium iodide staining based flow cytometry; format: functional
[10] = test system: U-251; test: Antiproliferative activity against human U-251 cells assessed as reduction in cell viability at 0.1 to 250 uM measured after 72 hrs by MTT assay; format: functional, cell-based; conditions: dose 0.1-250 µM
[11] = test system: MDA-MB-231; test: Antiproliferative activity against human MDA-MB-231 cells assessed as reduction in cell viability at 0.1 to 250 uM measured after 72 hrs by MTT assay; format: functional, cell-based; conditions: dose 0.1-250 µM
[12] = test system: Daoy; test: Antiproliferative activity against human Daoy cells assessed as reduction in cell viability at 0.1 to 250 uM measured after 72 hrs by MTT assay; format: functional, cell-based; conditions: dose 0.1-250 µM
[13] = test system: U-87 MG; test: Antiproliferative activity against human U87 cells assessed as reduction in cell viability at 0.1 to 250 uM measured after 72 hrs by MTT assay; format: functional, cell-based; conditions: U-87MG ATCC, dose 0.1-250 µM

IC50 [2] [µM]	IC50 [4] [µM]	IC50 [6] [µM]	SMILES	IC50 [1] [µM]	Activity [3]	Activity [5]	Activity [7]	Activity [8]	Activity [9]	Activity [10]	Activity [11]	Activity [12]	Activity [13]
0.186	0.482	0.106	COc1cccc2c1C(=O)c1c(O)c3c(c(O)c1C2=O)C[C@@](O)(C(=O)CO)C[C@@H]3O[C@H]1C[C@H](N)[C@H](O)[C@H](C)O1 [DOXORUBICIN]	0.0629	Active	Active	–	–	–	–	–	–	–
32.4	535	1.34	O=C(/C=C/c1ccccc1)O[C@H](c1ccccc1)[C@@H]1O[C@@H]2CC(=O)O[C@@H]2[C@@H]1O	612	–	–	inactive	inactive	inactive	–	–	–	–
7.61	–	529	O=C1C[C@H]2O[C@@H](CI)[C@@H](O)[C@H]2O1	141	–	–	inactive	inactive	inactive	–	–	–	–
–	–	–	O=C1C[C@H]2O[C@@H](CO)[C@@H](OCc3ccccc3)[C@H]2O1	–	–	–	–	–	–	inactive	inactive	inactive	inactive
–	–	–	O=C1C[C@H]2O[C@@H]([C@H](O)c3ccccc3)[C@@H](O)[C@H]2O1	–	–	–	–	–	–	inactive	inactive	inactive	inactive
–	–	–	O=C1C[C@H]2O[C@@H](CO)[C@@H](O)[C@H]2O1	–	–	–	–	–	–	inactive	inactive	inactive	inactive
–	–	–	O=C1C[C@H]2O[C@@H]([C@@H](O)c3ccccc3)[C@@H](O)[C@H]2O1	–	–	–	–	–	–	inactive	inactive	inactive	inactive
–	–	–	O=C1C[C@H]2O[C@H](CO)[C@@H](OCc3ccccc3)[C@H]2O1	–	–	–	–	–	–	inactive	inactive	inactive	inactive
–	–	–	O=C1C[C@H]2O[C@H](CO)[C@@H](O)[C@H]2O1	–	–	–	–	–	–	inactive	inactive	inactive	inactive
